According to patent US10023592B2, “Bromodomain inhibitors” (Celgene Quanticel Research, Inc., priority 2013, dated 2018):
pIC50: −log10 of the molar value.

How the values were obtained:
[1] = tested on: Raji, human Burkitts lymphoma cells; test: Cell-MTS proliferation assay, Raji; format: cell-based; conditions: Homo sapiens, 168 hr
How it was run: (§1)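 Seeded for ~90% confluence at 7 days (Raji 15,000, HL-60 5,000, NCI-H460 3,000 cells/well); compound added 24 h post-plating as 11-point dilution, 100 μM to 2.0 nM final.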

[2] = biological target: BRD4(BD1) (Homo sapiens (Human), UniProt O60885); test: In vitro enzyme inhibition assay (BRD4 AlphaScreen); format: binding
How it was run: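 His-tagged BRD4 tested by AlphaScreen for binding of biotinylated H4K5/8/12/16-tetraacetyl peptide. After 20 min at room temperature, streptavidin donor and nickel chelate acceptor beads added (5 μg/mL final each). IC50 determined.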

[3] = tested on: NCI-H460, human non-small cell lung cancer cells; test: Cell-MTS proliferation assay, NCI-H460; format: cell-based; conditions: Homo sapiens, 168 hr
How it was run: as §1

[4] = tested on: HL-60, human proleukemia cells; test: Cell-MTS proliferation assay, HL-60; format: cell-based; conditions: Homo sapiens, 168 hr
How it was run: as §1

[5] = Raji, Cell-MTS, class symbols A/B/C
[6] = NCI-H460, Cell-MTS, class symbols A/B/C
[7] = HL-60, Cell-MTS, class symbols A/B/C
[8] = Cell-MTS proliferation, Raji cells
[9] = in vitro enzyme inhibition assay
[10] = Cell-MTS proliferation, NCI-H460 cells
[11] = Cell-MTS proliferation, HL-60 cells
[12] = NCI-H460, Cell-MTS proliferation

Row | Structure (SMILES) | pIC50 [1, 5] | pIC50 ([2]; class symbols A/B/C) | pIC50 [3, 6] | pIC50 [4, 7] | pIC50 [1, 8] | pIC50 [2, 9] | pIC50 [3, 10] | pIC50 [4, 11] | pIC50 ([1]; Raji, Cell-MTS proliferation) | pIC50 [3, 12] | pIC50 ([4]; HL-60, Cell-MTS proliferation)
1 | Cn1cc(-c2cc(S(C)(=O)=O)ccc2Oc2ccc(F)cc2F)c2ccccc2c1=O [Example 92, 4-[2-(2,4-difluorophenoxy)-5-methylsulfonylphenyl]-2-methylisoquinolin-1-one] | > 6.30 | > 6.30 | < 5.30 | > 6.30 | – | – | – | – | – | – | –
2 | CCS(=O)(=O)c1ccc(Oc2ccc(F)cc2F)c(-c2cc(F)c(=O)n(C)c2)c1 [Example 121, 5-[2-(2,4-difluorophenoxy)-5-ethylsulfonylphenyl]-3-fluoro-1-methylpyridin-2-one] | 5.30 to 6.30 | > 6.30 | < 5.30 | > 6.30 | – | – | – | – | – | – | –
3 | CCS(=O)(=O)Nc1ccc(OCC2CC2)c(-c2cn(C)c(=O)c3occc23)c1 [Example 255, N-[4-(cyclopropylmethoxy)-3-(6-methyl-7-oxofuro[2,3-c]pyridine-4-yl)phenyl]ethanesulfonamide] | – | – | – | – | – | > 6.30 | – | – | > 6.30 | < 5.30 | > 6.30
4 | CCS(=O)(=O)Nc1ncc(Oc2ccc(F)cc2F)c(-c2cn(C)c(=O)c3ccccc23)n1 [Example 170, N-[5-(2,4-difluorophenoxy)-4-(2-methyl-1-oxoisoquinolin-4-yl)pyrimidin-2-yl]ethanesulfonamide] | – | – | – | – | – | > 6.30 | – | – | > 6.30 | < 5.30 | > 6.30
5 | COc1ccc(-c2cn(C)c(=O)c3cc(F)ccc23)cc1S(=O)(=O)NCc1ccccc1 [Example 60, N-benzyl-5-(7-fluoro-2-methyl-1-oxoisoquinolin-4-yl)-2-methoxybenzenesulfonamide] | > 6.30 | 5.30 to 6.30 | < 5.30 | 5.30 to 6.30 | – | – | – | – | – | – | –
6 | Cn1cc(-c2cc(S(C)(=O)=O)ccc2OCC2CC2)c2ccoc2c1=O [Example 254, 4-[2-(cyclopropylmethoxy)-5-methylsulfonylphenyl]-6-methylfuro[2,3-c]pyridine-7-one] | – | – | – | – | – | > 6.30 | – | – | > 6.30 | < 5.30 | > 6.30
7 | CCS(=O)(=O)Nc1ccc(Oc2ccc(F)cc2F)c(-c2cc(Cl)c(=O)n(C)c2)c1 [Example 134, N-[3-(5-chloro-1-methyl-6-oxopyridin-3-yl)-4-(2,4-difluorophenoxy)phenyl]ethanesulfonamide] | > 6.30 | > 6.30 | 5.30 to 6.30 | > 6.30 | – | – | – | – | – | – | –
8 | CCS(=O)(=O)Nc1ncc(OCC2CC2)c(-c2cn(C)c(=O)c3c2CCCC3)n1 [Example 164, N-[5-(cyclopropylmethoxy)-4-(2-methyl-1-oxo-5,6,7,8-tetrahydroisoquinolin-4-yl)pyrimidin-2-yl]ethanesulfonamide] | – | – | – | – | – | > 6.30 | – | – | > 6.30 | < 5.30 | 5.30 to 6.30
9 | Cn1cc(-c2cc(S(C)(=O)=O)ccc2O[C@H]2CC[C@H](O)CC2)c2cc(F)ccc2c1=O [Example 186, 6-fluoro-4-[2-(trans-4-hydroxycyclohexyl)oxy-5-methylsulfonylphenyl]-2-methylisoquinolin-1-one] | – | – | – | – | – | > 6.30 | – | – | > 6.30 | < 5.30 | > 6.30
10 | CCS(=O)(=O)Nc1ccc(Cl)c(-c2cn(C)c(=O)c3ccc(F)cc23)c1 [Example 50, N-[4-chloro-3-(6-fluoro-2-methyl-1-oxoisoquinolin-4-yl)phenyl] ethanesulfonamide] | 5.30 to 6.30 | > 6.30 | 5.30 to 6.30 | > 6.30 | – | – | – | – | – | – | –
11 | Cc1cc(-c2nc(NS(C)(=O)=O)ncc2Oc2ccc(F)cc2F)cn(C)c1=O [Example 166, N-[5-(2,4-difluorophenoxy)-4-(1,5-dimethyl-6-oxopyridin-3-yl)pyrimidin-2-yl]methanesulfonamide] | – | – | – | – | – | > 6.30 | – | – | > 6.30 | < 5.30 | > 6.30
12 | CCOc1ccc(S(C)(=O)=O)cc1-c1cn(C)c(=O)c2ccccc12 [Example 177, 4-(2-ethoxy-5-methylsulfonylphenyl)-2-methylisoquinolin-1-one] | – | – | – | – | – | > 6.30 | – | – | 5.30 to 6.30 | < 5.30 | > 6.30
13 | Cn1cc(-c2nc(NS(C)(=O)=O)ncc2OCC2CC2)c2c(c1=O)CCCC2 [Example 163, N-[5-(cyclopropylmethoxy)-4-(2-methyl-1-oxo-5,6,7,8-tetrahydroisoquinolin-4-yl)pyrimidin-2-yl]methanesulfonamide] | – | – | – | – | – | > 6.30 | – | – | > 6.30 | < 5.30 | 5.30 to 6.30
14 | Cn1cc(-c2cc(CS(C)(=O)=O)ccc2Oc2ccc(F)cc2F)n2cncc2c1=O [Example 372, 5-[2-(2,4-difluorophenoxy)-5-(methylsulfonylmethyl)phenyl]-7-methylimidazo[1,5-a]pyrazin-8-one] | – | – | – | – | – | > 6.30 | – | – | > 6.30 | < 5.30 | > 6.30
15 | Cn1cc(-c2cc(CS(C)(=O)=O)ccc2OCC(F)(F)F)c2ccccc2c1=O [Example 488, 2-methyl-4-[5-(methylsulfonylmethyl)-2-(2,2,2-trifluoroethoxy)phenyl]isoquinolin-1-one] | – | – | – | – | > 6.30 | > 6.30 | < 5.30 | > 6.30 | – | – | –
16 | CCS(=O)(=O)c1cnc(OCC2CC2)c(-c2cn(C)c(=O)c3ccccc23)c1 [Example 322, 4-[2-(cyclopropylmethoxy)-5-ethylsulfonylpyridin-3-yl]-2-methylisoquinolin-1-one] | – | – | – | – | – | > 6.30 | – | – | > 6.30 | < 5.30 | > 6.30

More lines, now with the values ahead:

Row | pIC50 [1, 5] | pIC50 ([2]; class symbols A/B/C) | pIC50 [3, 6] | pIC50 [4, 7] | pIC50 [1, 8] | pIC50 [2, 9] | pIC50 [3, 10] | pIC50 [4, 11] | pIC50 ([1]; Raji, Cell-MTS proliferation) | pIC50 [3, 12] | pIC50 ([4]; HL-60, Cell-MTS proliferation) | Structure (SMILES)
17 | – | – | – | – | > 6.30 | > 6.30 | < 5.30 | > 6.30 | – | – | – | CCS(=O)(=O)Nc1ccc(Oc2ccc(F)cc2F)c(-c2cc(SC)c(=O)n(C)c2)c1 [Example 402, N-[4-(2,4-difluorophenoxy)-3-(1-methyl-5-methylsulfanyl-6-oxopyridin-3-yl)phenyl]ethanesulfonamide]
18 | – | – | – | – | 5.30 to 6.30 | > 6.30 | < 5.30 | > 6.30 | – | – | – | Cc1cc(-c2cc(S(C)(=O)=O)ccc2NC2CCOCC2)cn(C)c1=O [Example 436, 1,3-dimethyl-5-[5-methylsulfonyl-2-(oxan-4-ylamino)phenyl]pyridin-2-one]
19 | – | – | – | – | – | > 6.30 | – | – | 5.30 to 6.30 | < 5.30 | 5.30 to 6.30 | Cn1cc(-c2nc(NS(C)(=O)=O)ncc2Oc2ccc(F)cc2F)c2c(c1=O)CCCC2 [Example 172, N-[5-(2,4-difluorophenoxy)-4-(2-methyl-1-oxo-5,6,7,8-tetrahydroisoquinolin-4-yl)pyrimidin-2-yl]methanesulfonamide]
20 | – | – | – | – | > 6.30 | > 6.30 | < 5.30 | > 6.30 | – | – | – | CCS(=O)(=O)Nc1ccc(O[C@H]2CC[C@H](O)CC2)c(-c2cc(C)c(=O)n(C)c2)c1 [Example 430, N-[3-(1,5-dimethyl-6-oxopyridin-3-yl)-4-(trans-4-hydroxycyclohexyl)oxyphenyl]ethanesulfonamide]
21 | – | – | – | – | – | > 6.30 | – | – | 5.30 to 6.30 | < 5.30 | 5.30 to 6.30 | CCS(=O)(=O)c1ccc(OCC2CC2)c(-c2cc(F)c(=O)n(C)c2)c1 [Example 274, 5-[2-(cyclopropylmethoxy)-5-ethylsulfonylphenyl]-3-fluoro-1-methylpyridin-2-one]
22 | – | – | – | – | – | > 6.30 | – | – | > 6.30 | < 5.30 | > 6.30 | Cc1cc(-c2cc(O[C@H](C)c3ccccc3)cc(S(C)(=O)=O)c2)cn(C)c1=O [Example 341, 1,3-dimethyl-5-[3-methylsulfonyl-5-[(1R)-1-phenylethoxy]phenyl]pyridin-2-one]
23 | – | – | – | – | 5.30 to 6.30 | > 6.30 | < 5.30 | 5.30 to 6.30 | – | – | – | COCC1COc2cc(S(C)(=O)=O)cc(-c3cn(C)c(=O)c4ccccc34)c2O1 (stereo not drawn) [Example 497, 4-[3-(methoxymethyl)-7-methylsulfonyl-2,3-dihydro-1,4-benzodioxin-5-yl]-2-methylisoquinolin-1-one]
24 | – | – | – | – | – | > 6.30 | – | – | > 6.30 | < 5.30 | > 6.30 | CCCCc1cnc(NS(=O)(=O)CC)nc1-c1cc(C)c(=O)n(C)c1 [Example 310, N-[5-butyl-4-(1,5-dimethyl-6-oxopyridin-3-yl)pyrimidin-2-yl] ethanesulfonamide]
25 | – | – | – | – | – | > 6.30 | – | – | > 6.30 | < 5.30 | > 6.30 | Cn1cc(-c2cc(S(C)(=O)=O)ccc2O[C@H]2CC[C@H](N)CC2)c2ccccc2c1=O [Example 182, 4-[2-(trans-4-aminocyclohexyl)oxy-5-methylsulfonylphenyl]-2-methylisoquinolin-1-one]
26 | – | – | – | – | > 6.30 | > 6.30 | < 5.30 | > 6.30 | – | – | – | CC#CCOc1ccc(S(C)(=O)=O)cc1-c1cc(C)c(=O)n(C)c1 [Example 388, 5-(2-but-2-ynoxy-5-methylsulfonylphenyl)-1,3-dimethylpyridin-2-one]
27 | – | – | – | – | – | > 6.30 | – | – | 5.30 to 6.30 | < 5.30 | > 6.30 | Cc1nc2c(=O)n(C)cc(-c3cc(S(C)(=O)=O)ccc3OCC3CC3)c2o1 [Example 238, 7-[2-(cyclopropylmethoxy)-5-methylsulfonylphenyl]-2,5-dimethyl-[1,3]oxazolo[4,5-c]pyridin-4-one]
